In assay [1] the target is EGFR (murine) (UniProt P00533). As to conditions: nih3t3/c7.
Assay [2] deals with EGFR (human) (UniProt P00533). As to conditions: a431.

Each structure is given as a SMILES string. “And” between values parts separate entries of the source, which are not always exact repeats. Identical values can stand only once.

Sequence of EGFR (human) (P00533 whole entry, looked up): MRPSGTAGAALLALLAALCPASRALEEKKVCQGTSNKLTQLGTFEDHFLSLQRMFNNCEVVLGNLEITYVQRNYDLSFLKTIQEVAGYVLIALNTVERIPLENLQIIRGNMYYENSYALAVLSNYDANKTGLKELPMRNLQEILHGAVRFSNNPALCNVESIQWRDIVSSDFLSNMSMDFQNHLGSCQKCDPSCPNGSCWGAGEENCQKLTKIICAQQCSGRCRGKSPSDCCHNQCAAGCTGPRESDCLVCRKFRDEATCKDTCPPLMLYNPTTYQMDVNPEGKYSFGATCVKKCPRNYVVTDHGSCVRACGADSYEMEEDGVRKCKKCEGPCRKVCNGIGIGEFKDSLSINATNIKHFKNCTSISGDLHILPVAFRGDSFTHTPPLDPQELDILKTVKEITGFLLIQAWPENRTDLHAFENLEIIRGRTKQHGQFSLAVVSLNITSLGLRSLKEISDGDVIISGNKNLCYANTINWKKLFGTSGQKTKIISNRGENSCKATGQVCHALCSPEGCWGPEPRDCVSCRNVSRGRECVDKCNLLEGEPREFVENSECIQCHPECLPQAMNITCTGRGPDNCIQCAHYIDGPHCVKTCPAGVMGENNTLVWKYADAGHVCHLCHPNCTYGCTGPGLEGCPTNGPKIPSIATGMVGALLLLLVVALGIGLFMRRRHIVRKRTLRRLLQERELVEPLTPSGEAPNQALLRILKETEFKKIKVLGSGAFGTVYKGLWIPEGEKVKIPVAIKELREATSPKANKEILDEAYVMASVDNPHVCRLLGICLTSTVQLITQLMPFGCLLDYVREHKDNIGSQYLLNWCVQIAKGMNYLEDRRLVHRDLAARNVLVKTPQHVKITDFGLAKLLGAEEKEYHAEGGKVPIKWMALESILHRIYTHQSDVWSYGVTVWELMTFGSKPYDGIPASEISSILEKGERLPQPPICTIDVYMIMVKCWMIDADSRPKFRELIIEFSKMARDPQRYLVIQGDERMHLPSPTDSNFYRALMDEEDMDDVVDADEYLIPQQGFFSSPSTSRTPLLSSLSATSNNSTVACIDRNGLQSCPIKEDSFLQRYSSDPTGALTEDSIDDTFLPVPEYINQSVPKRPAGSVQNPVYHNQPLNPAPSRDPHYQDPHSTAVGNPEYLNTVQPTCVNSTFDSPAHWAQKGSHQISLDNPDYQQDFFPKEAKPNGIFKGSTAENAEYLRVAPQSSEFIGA
Sequence of EGFR (murine) (P00533 whole entry, looked up): as above

By IC50 is commonly meant the midpoint of a concentration-inhibition curve. Read a low IC50 as greater potency in that assay. Consider `Cc1ccc2ncnc(Nc3cccc(C(F)(F)F)c3)c2c1`, for which the IC50 in assay [1] turned out to be 0.86 µM.

In turn, `N#CC(C#N)=CNNc1cccc(Cl)c1` displayed an IC50 in assay [1] of over 50 µM.

`CC(C)(C)c1cc(/C=C(\C#N)c2c(C#N)c(N)nn2-c2ccccc2)cc(C(C)(C)C)c1O` yielded an IC50 in assay [1] of 25 µM.

Turning to `CC(=O)C1=C(c2ccccc2)[NH+]([O-])c2ccccc2[NH+]1[O-]` (stereo not drawn), in assay [1], the IC50 was over 100 µM.

As for `CC(C)(C)c1cc(/C=C(\C#N)S(=O)(=O)/C(C#N)=C/c2cc(C(C)(C)C)c(O)c(C(C)(C)C)c2)cc(C(C)(C)C)c1O`, the IC50 in assay [1] is over 100 µM.

Consider `Cc1ccc2ncnc(Nc3cccc(Cl)c3)c2c1`, for which the IC50 in assay [1] was 0.06 µM; in assay [2] it was 10 µM and 20 µM.

In turn, `N#C/C(=C\c1cc(O)c(O)c(Br)c1)C(=O)NCCCNC(=O)/C(C#N)=C/c1cc(O)c(O)c(Br)c1` returned an IC50 in assay [1] of 31.5 µM.

`CC(=O)ON=C(Cl)C1=C[NH+]([O-])c2cc(Cl)ccc2[NH+]1[O-]` (stereo not drawn): the half-inhibitory concentration (IC50) in assay [1] was over 50 µM.

Take `Cc1cc2nc(CSCCCSCc3nc4cc(C)c(C)cc4nc3-c3ccccc3)c(-c3ccccc3)nc2cc1C`: the IC50 in assay [1] is 12.5 µM.

For `COC(=O)c1ccc(NCc2cc(O)ccc2O)cc1`, in assay [1], the IC50 was determined as 43 µM.

For the compound `Clc1cccc(Nc2ncnc3ccccc23)c1`, the half-inhibitory concentration (IC50) in assay [1] is 0.16 µM and 0.2 µM; in assay [2] it was 20 µM.

Source of the values: the Kinase Knowledgebase extract (Sharma et al. 2016).
